Experimental data as given in article PMC6048275, “Methylpiperidinium Iodides as Novel Antagonists for α7 Nicotinic Acetylcholine Receptors” (Frontiers in Pharmacology, 2018).

Molecular target: T1, rat hippocampal α7 nAChR (endogenous, CA1 stratum radiatum interneurons) (Rattus norvegicus, UniProt Q05941)
T1 construct: gene Chrna7; native full-length homopentamer in rat hippocampal CA1 interneurons in brain slices
Assay: whole-cell voltage clamp, choline-induced current, rat CA1 interneurons in slice
Settings: 10 mM choline puffs; antagonist; -70 mV; pH 7.4; room temperature; approximate, read from concentration-response curve; voltage-independent; native receptor, α7β2 possibly mixed; read-out: 50% inhibition of ICh

T1 sequence (Q05941 23-502): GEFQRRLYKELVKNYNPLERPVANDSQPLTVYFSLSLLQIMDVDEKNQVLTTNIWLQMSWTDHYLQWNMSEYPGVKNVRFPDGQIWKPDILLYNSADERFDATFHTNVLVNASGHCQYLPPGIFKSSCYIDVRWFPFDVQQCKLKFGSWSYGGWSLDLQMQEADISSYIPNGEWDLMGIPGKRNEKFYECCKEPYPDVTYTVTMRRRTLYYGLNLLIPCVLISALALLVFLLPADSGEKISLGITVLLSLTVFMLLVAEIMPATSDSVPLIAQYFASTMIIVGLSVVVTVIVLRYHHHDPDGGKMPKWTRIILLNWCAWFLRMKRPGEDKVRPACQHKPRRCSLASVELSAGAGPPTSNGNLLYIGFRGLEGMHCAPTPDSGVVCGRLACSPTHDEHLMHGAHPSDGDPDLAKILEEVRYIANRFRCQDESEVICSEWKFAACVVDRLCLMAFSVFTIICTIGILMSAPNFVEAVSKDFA

Compound: CCCCCCCOc1ccc(OCC[N+]2(C)CCCCC2)cc1 [12a]
- IC50: ~5 µM
